The test system of this test is Caco-2 cells. The test is described as follows: Evaluation of intestinal barrier function improvement: TEER reduction suppression in Caco-2 monolayer with inflammatory cytokines (TNFα, IL-1β, IFNγ). The class given is cell-based, human. Conditions: for Synergistic effect (M.V./T/V/) / TEER reduction suppression ratio (%) +gallic acid (actual measurement value) (M.V.) / Synergistic effect (M.V./T.V.): combined use of phenolic compound and gallic acid; for TEER reduction suppression ratio (%) +gallic acid (theoretical value) (T.V.): sum of ratios of phenolic compound alone and gallic acid alone; for Relative value of TEER reduction suppression ratio: sample alone 1 μM; for Synergistic effect (relative value of actual measurement value / relative value of theoretical value): combined use of the phenolic compound with gallic acid, 1 μM each (Table 1). The text has this: The intestinal barrier function improvement effect is indicated by, for example, increase in the electrical resistance value (transepithelial electric resistance: TEER) of the intestinal epithelial cells or suppression of the decrease in the TEER. A substance increasing the TEER or suppressing the decrease thereof has the action of normalizing or strengthening the tight junction in the intestinal epithelial cells. The intestinal barrier function improvement effect is also indicated by decrease in the amount of a substance permeating from the intestinal side of the intestinal epithelial cells to the inside of the body. The person skilled in the art can select a specific method of evaluating the intestinal barrier function improvement effect depending on the purpose. For exarple, as shown in Examples to be described later, a method for measuring TEER using an intestinal permeation model using human intestinal epithelial cells (Caco-2 cells) can be used. Specifically, inflammatory cytokine (TNFα, IL-1β, IFNγ and the like) is added into Caco-2 monolayer cultured cells to produce a state where the intestinal barrier function can be collapsed in human. If the addition of a test substance suppresses the decrease in the TEER as compared with the case where the substance is not added, the test substance can be evaluated to have the intestinal barrier function improvement effect.
Caco-2 cells were cultured for three weeks at 37° C. in Transwell (manufactured by Millicell Corporation) using DMEM (Dulbecco's modified Eagle's medium). A medium was removed from a plate of cultured Caco-2 cells, and the well was washed 3 times with serum-free DMEM. The well was filled with the medium. Then, the transepithelial electrical resistance (TEER) of Caco-2 monolayer cells was measured by Millicell-ERS (manufactured by Millipore Corporation). Cells (TEER≥1000 Ω·cm^2) determined that a sufficient tight junction was formed were selected, and used for the next screening. Then, to test solutions (media) on both apical and basolateral membrane sides, a sample, TNFα (40 ng/mL), IL-1β (20 ng/mL), and IFNγ (10 ng/mL) were added, followed by cultivating for 48 hours. The sample was dissolved in dimethyl sulfoxide (DMSO), and the solution was then added to the test solutions. In this case, a well to which inflammatory cytokine (TNFα, IL-1β, and IFNγ) and the sample were not added was provided as normal. A well to which inflammatory cytokine was added and the sample was not added was provided as control. After the cultivation, TEER was measured again, to evaluate whether the sample suppressed the reduction (decrease) of TEER due to the inflammatory cytokine.
The TEER reduction suppression ratio (%) due to the sample was determined according to the following formula from the TEER values of the well to which the sample was added, normal, and control.
(Calculating formula of TEER reduction suppression ratio) TEER reduction suppression ratio (%)=100×((TEER of well to which sample is added)−(TEER of control))/((TEER of normal)−(TEER of control))
In this evaluation system, as the TEER reduction suppression ratio (%) is higher, an intestinal barrier function improvement effect is higher.

Consider `O=c1cc(-c2ccc(O)c(O)c2)oc2cc(O)cc(O)c12` [Luteolin, luteolin], for which, under “each 10 μM”, the “Synergistic effect (M.V./T/V/)” value was found to be 1.6 and the “TEER reduction suppression ratio (%) +gallic acid (actual measurement value) (M.V.)” value is on record as 58%.

Consider `O=c1c(O)cc([C@H]2Oc3cc(O)cc(O)c3C[C@H]2O)cc2c([C@H]3Oc4cc(O)cc(O)c4C[C@H]3O)cc(O)c(O)c12` [Theaflavin, theaflavin], for which, for the setting “each 10 μM”, the “Synergistic effect (M.V./T/V/)” value was found to be 1.6 and the “TEER reduction suppression ratio (%) +gallic acid (actual measurement value) (M.V.)” value came to 98%.

As for `Oc1cc(O)c2c(c1)O[C@H](c1ccc(O)c(O)c1)[C@@H](O)[C@@H]2c1c(O)cc(O)c2c1O[C@H](c1ccc(O)c(O)c1)[C@@H](O)C2` [Procyanidin B3, procyanidin B3], where the note is “each 10 μM”, the “Synergistic effect (M.V./T/V/)” value is on record as 1.9 and the “TEER reduction suppression ratio (%) +gallic acid (actual measurement value) (M.V.)” value worked out at 77%. The “TEER reduction suppression ratio (%) +gallic acid (theoretical value) (T.V.)” value (10 μM each) came to 53%.

`O=c1c(-c2ccc(O)cc2)coc2cc(O)cc(O)c12` [Genistein, genistein]: under “each 10 μM”, the “Synergistic effect (M.V./T/V/)” value turned out to be 1.6 and the “TEER reduction suppression ratio (%) +gallic acid (actual measurement value) (M.V.)” value amounted to 58%.

With `O=C(OC[C@H]1O[C@@H](OC(=O)c2cc(O)c(O)c(O)c2)[C@H](OC(=O)c2cc(O)c(O)c(O)c2)[C@@H](OC(=O)c2cc(O)c(O)c(O)c2)[C@@H]1O)c1cc(O)c(O)c(O)c1` [1,2,3,6-tetra-O-galloyl-β-D-glucose], where the note is “each 1 μM”, the “Synergistic effect (M.V./T.V.)” value stood at 1.5 and the “TEER reduction suppression ratio (%) +gallic acid (actual measurement value) (M.V.)” value came to 81%.

For `Oc1cc(O)c2c(c1)O[C@H](c1cc(O)c(O)c(O)c1)[C@H](O)C2` [Epigallocatechin (EGC), epigallocatechin], the “Synergistic effect (relative value of actual measurement value / relative value of theoretical value)” value is given as 1.5. For the same compound, where the note is “Evaluation 4, epigallocatechin (EGC) set to 1.0”, the “Relative value of TEER reduction suppression ratio” value turned out to be 1.0.

As to `O=c1c(O)c(-c2ccc(O)cc2)oc2cc(O)cc(O)c12` [Kaempferol, kaempferol], where the note is “each 10 μM”, the “Synergistic effect (M.V./T/V/)” value worked out at 2.5 and the “TEER reduction suppression ratio (%) +gallic acid (actual measurement value) (M.V.)” value is reported as 43%.

As for `O=C(OC[C@H]1O[C@@H](OC(=O)c2cc(O)c(O)c(O)c2)[C@H](OC(=O)c2cc(O)c(O)c(O)c2)[C@@H](O)[C@@H]1OC(=O)c1cc(O)c(O)c(O)c1)c1cc(O)c(O)c(O)c1` [1,2,4,6-tetra-O-galloyl-β-D-glucose], where the note is “each 1 μM”, the “Synergistic effect (M.V./T.V.)” value was 1.4 and the “TEER reduction suppression ratio (%) +gallic acid (actual measurement value) (M.V.)” value is recorded as 56%.

Regarding `C[C@@H]1O[C@@H](OC[C@H]2O[C@@H](Oc3c(-c4ccc(O)c(O)c4)oc4cc(O)cc(O)c4c3=O)[C@H](O)[C@@H](O)[C@@H]2O)[C@H](O)[C@H](O)[C@H]1O` [Rutin, rutin], under “each 10 μM”, the “Synergistic effect (M.V./T/V/)” value was 2.9 and the “TEER reduction suppression ratio (%) +gallic acid (actual measurement value) (M.V.)” value turned out to be 45%.

Regarding `O=C(O[C@@H]1Cc2c(O)cc(O)cc2O[C@@H]1c1cc(O)c(O)c(O)c1)c1cc(O)c(O)c(O)c1` [Epigallocatechin gallate, epigallocatechin gallate], for the setting “each 10 μM”, the “Synergistic effect (M.V./T/V/)” value is recorded as 1.5 and the “TEER reduction suppression ratio (%) +gallic acid (actual measurement value) (M.V.)” value came to 114%. Further, the “TEER reduction suppression ratio (%) +gallic acid (theoretical value) (T.V.)” value (10 μM each) was found to be 76%.

Regarding eugeniflorin D2, where the note is “each 1 μM”, the “Synergistic effect (M.V./T.V.)” value is reported as 1.3 and the “TEER reduction suppression ratio (%) +gallic acid (actual measurement value) (M.V.)” value stood at 102%. The “TEER reduction suppression ratio (%) +gallic acid (theoretical value) (T.V.)” value (1 μM each) is on record as 80%.

As to `O=C(OC1C(OC(=O)c2cc(O)c(O)c(O)c2)[C@H](O)OC2COC(=O)c3cc(O)c(O)c(O)c3-c3c(cc(O)c(O)c3O)C(=O)O[C@H]21)c1cc(O)c(O)c(O)c1` (stereo partly shown) [Tellimagrandin I, tellimagrandin I], under “each 1 μM”, the “Synergistic effect (M.V./T.V.)” value was determined as 1.6 and the “TEER reduction suppression ratio (%) +gallic acid (actual measurement value) (M.V.)” value is recorded as 92%.

In the case of `O=C1C[C@@H](c2ccc(O)cc2)Oc2cc(O)cc(O)c21` [Naringenin, naringenin], under “each 10 μM”, the “Synergistic effect (M.V./T/V/)” value is reported as 2.0 and the “TEER reduction suppression ratio (%) +gallic acid (actual measurement value) (M.V.)” value was determined as 61%.

Take `Oc1cc(O)c2c(c1)O[C@H](c1cc(O)c(O)c(O)c1)[C@@H](O)C2` [Galloatechin (GC), gallocatechin]: the “Synergistic effect (relative value of actual measurement value / relative value of theoretical value)” value is recorded as 2.5. Also, the “Relative value of TEER reduction suppression ratio” value (Evaluation 3, gallocatechin (GC) set to 1.0) came to 1.0.

As to `O=C(OC[C@H]1O[C@@H](O)[C@H](OC(=O)c2cc(O)c(O)c(O)c2)[C@@H](OC(=O)c2cc(O)c(O)c(O)c2)[C@@H]1OC(=O)c1cc(O)c(O)c(O)c1)c1cc(O)c(O)c(O)c1` [2,3,4,6-tetra-O-galloyl-β-D-glucose], where the note is “each 1 μM”, the “Synergistic effect (M.V./T.V.)” value was 2.0 and the “TEER reduction suppression ratio (%) +gallic acid (actual measurement value) (M.V.)” value is 90%.

On to `O=c1c(O[C@@H]2O[C@H](CO)[C@@H](O)[C@H](O)[C@H]2O)c(-c2ccc(O)c(O)c2)oc2cc(O)cc(O)c12` [Quercetin-3-O-glucopyranoside, quercetin-3-O-glucopyranoside], for which, for the setting “each 10 μM”, the “Synergistic effect (M.V./T/V/)” value is recorded as 1.5 and the “TEER reduction suppression ratio (%) +gallic acid (actual measurement value) (M.V.)” value amounted to 47%.

With catechin [Catechin (CA)], the “Synergistic effect (relative value of actual measurement value / relative value of theoretical value)” value worked out at 2.0. Besides, for the setting “Evaluation 1, catechin (CA) set to 1.0”, the “Relative value of TEER reduction suppression ratio” value is listed as 1.0.

Take stenophyllanin B: where the note is “each 1 μM”, the “Synergistic effect (M.V./T.V.)” value came to 1.3 and the “TEER reduction suppression ratio (%) +gallic acid (actual measurement value) (M.V.)” value was 82%. For the same compound, the “TEER reduction suppression ratio (%) +gallic acid (theoretical value) (T.V.)” value (1 μM each) is reported as 66%.

For `O=c1cc(-c2ccc(O)cc2)oc2cc(O)cc(O)c12` [Apigenin, apigenin], for the setting “each 10 μM”, the “Synergistic effect (M.V./T/V/)” value is listed as 4.1 and the “TEER reduction suppression ratio (%) +gallic acid (actual measurement value) (M.V.)” value worked out at 51%.

As for `O=C(O[C@@H]1Cc2c(O)cc(O)cc2O[C@@H]1c1ccc(O)c(O)c1)c1cc(O)c(O)c(O)c1` [Epicatechin gallate, epicatechin gallate], for the setting “each 10 μM”, the “Synergistic effect (M.V./T/V/)” value is given as 2.3 and the “TEER reduction suppression ratio (%) +gallic acid (actual measurement value) (M.V.)” value is recorded as 110%.

For the compound `Oc1cc(O)c2c(c1)O[C@H](c1ccc(O)c(O)c1)[C@H](O)C2` [Epicatechin (EC), epicatechin], the “Synergistic effect (relative value of actual measurement value / relative value of theoretical value)” value worked out at 1.7. Also, where the note is “Evaluation 2, epicatechin (EC) set to 1.0”, the “Relative value of TEER reduction suppression ratio” value was found to be 1.0.

For the compound `O=C(/C=C/c1ccc(O)cc1)c1c(O)cc(O)cc1O` [Naringenin chalcone, 4,2′,4′,6′-tetra-hydroxy chalcone], where the note is “each 10 μM”, the “Synergistic effect (M.V./T/V/)” value is 1.7 and the “TEER reduction suppression ratio (%) +gallic acid (actual measurement value) (M.V.)” value was determined as 51%.

For stenophyllanin A, for the setting “each 1 μM”, the “Synergistic effect (M.V./T.V.)” value is listed as 1.7 and the “TEER reduction suppression ratio (%) +gallic acid (actual measurement value) (M.V.)” value worked out at 95%. Besides, under “1 μM each”, the “TEER reduction suppression ratio (%) +gallic acid (theoretical value) (T.V.)” value was 56%.

With `O=c1c(O)c(-c2cc(O)c(O)c(O)c2)oc2cc(O)cc(O)c12` [Myricetin, myricetin], under “each 10 μM”, the “Synergistic effect (M.V./T/V/)” value amounted to 1.2 and the “TEER reduction suppression ratio (%) +gallic acid (actual measurement value) (M.V.)” value worked out at 75%.

Regarding `O=C1O[C@@H]2C3COC(=O)c4cc(O)c(O)c(O)c4-c4c(cc(O)c(O)c4O)C(=O)O[C@H]2C(OC(=O)c2cc(O)c(O)c4c2C2C1=CC(=O)C(O)(O)[C@@]2(O)O4)[C@H](OC(=O)c1cc(O)c(O)c(O)c1)O3` (stereo partly shown) [Geraniin, geraniin], where the note is “each 1 μM”, the “Synergistic effect (M.V./T.V.)” value is on record as 2.4 and the “TEER reduction suppression ratio (%) +gallic acid (actual measurement value) (M.V.)” value amounted to 119%.

In the case of `O=C(O)c1cc(O)c(O)c(O)c1Oc1cc2c(c(O)c1O)-c1c(cc(O)c(O)c1O)C(=O)O[C@@H]1C(COC2=O)O[C@@H](O)C2OC(=O)c3cc(O)c(O)c(O)c3-c3c(cc(O)c(O)c3O)C(=O)OC21` (stereo partly shown) [Praecoxin A, praecoxin A], for the setting “each 1 μM”, the “Synergistic effect (M.V./T.V.)” value amounted to 1.4 and the “TEER reduction suppression ratio (%) +gallic acid (actual measurement value) (M.V.)” value was determined as 104%.

In the case of `COc1cc(-c2[o+]c3cc(O)cc(O)c3cc2O)cc(O)c1O` [Petunidin chloride, petunidin chloride], under “each 10 μM”, the “Synergistic effect (M.V./T/V/)” value is reported as 1.9 and the “TEER reduction suppression ratio (%) +gallic acid (actual measurement value) (M.V.)” value stood at 70%.

On to `O=C(O[C@@H]1O[C@H](CO)[C@@H](O)[C@H](O)[C@H]1O)c1cc(O)c(O)c(O)c1` [β-glucogallin], for which, for the setting “each 1 μM”, the “Synergistic effect (M.V./T.V.)” value is reported as 2.4 and the “TEER reduction suppression ratio (%) +gallic acid (actual measurement value) (M.V.)” value amounted to 48%.

Source of the values: patent US20200315998A1, “COMPOSITION FOR IMPROVING INTESTINAL BARRIER FUNCTION” (SUNTORY HOLDINGS LIMITED, priority 2017, published 2020).
